Source: patent publication US7799809B2, “Carboxamide compounds and their use as calpain inhibitors” (Abbott GmbH & Co. KG, priority 2006, dated 2010)

Tests used:
Format in all cases: biochemical
cathepsin S = molecular target: T1, cathepsin S (Homo sapiens, UniProt P25774); assay: Cathepsin S enzyme inhibition in vitro (kinetic fluorescence assay); settings: recombinant human cathepsin S vs calpain I
T1 construct: purchased Calbiochem 219343; host or cells: E. coli
Outline: (§1)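 cat B 0.25 nM + Z-Phe-Arg-AMC 100 μM; cat L 1 nM + Z-Phe-Arg-AMC 2 μM; cat S 0.5 nM (E. coli-expressed) + Z-Val-Val-Arg-AMC 20 μM. 50 mM MES pH 6.0, 2.5 mM L-Cys, RT. Ex 390/em 460, kinetic; Ki app = Cheng-Prusoff from IC50, mean of 2–4 curves.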

cathepsin B = molecular target: T2, cathepsin B (Homo sapiens, UniProt P07858); assay: Cathepsin B enzyme inhibition in vitro (kinetic fluorescence assay); settings: cathepsin B isolated from human liver vs calpain I
T2 construct: cathepsin B—isolated from human liver (Calbiochem #219362); purchased Calbiochem 219362; host or cells: human liver (tissue-derived)
Outline: as §1

cathepsin L = molecular target: T3, cathepsin L (Homo sapiens, UniProt P07711); assay: Cathepsin L enzyme inhibition in vitro (kinetic fluorescence assay); settings: cathepsin L isolated from human liver vs calpain I
T3 construct: cathepsin L—isolated from human liver (Calbiochem #219402); purchased Calbiochem 219402; host or cells: human liver (tissue-derived)
Outline: as §1

cathepsin K = molecular target: T4, cathepsin K (Homo sapiens, UniProt P43235); assay: Cathepsin K enzyme inhibition in vitro (kinetic fluorescence assay); settings: cathepsin K activated from recombinant human procathepsin K vs calpain I
T4 construct: purchased Calbiochem 342001; host or cells: E. coli
T4 sequence (P43235 115-329): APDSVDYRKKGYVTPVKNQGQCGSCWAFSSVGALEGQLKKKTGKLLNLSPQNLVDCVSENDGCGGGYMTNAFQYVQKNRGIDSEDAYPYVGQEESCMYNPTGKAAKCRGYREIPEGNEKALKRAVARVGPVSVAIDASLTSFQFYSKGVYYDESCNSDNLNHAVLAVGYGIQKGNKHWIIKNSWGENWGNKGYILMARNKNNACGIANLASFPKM

T1 sequence (P25774 115-331): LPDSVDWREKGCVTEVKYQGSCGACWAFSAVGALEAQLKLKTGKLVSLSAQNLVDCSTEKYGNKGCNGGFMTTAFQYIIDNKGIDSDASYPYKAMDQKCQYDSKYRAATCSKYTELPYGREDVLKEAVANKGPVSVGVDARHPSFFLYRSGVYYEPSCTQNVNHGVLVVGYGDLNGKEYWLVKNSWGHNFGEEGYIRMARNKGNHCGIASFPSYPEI
T3 sequence (P07711 114-333): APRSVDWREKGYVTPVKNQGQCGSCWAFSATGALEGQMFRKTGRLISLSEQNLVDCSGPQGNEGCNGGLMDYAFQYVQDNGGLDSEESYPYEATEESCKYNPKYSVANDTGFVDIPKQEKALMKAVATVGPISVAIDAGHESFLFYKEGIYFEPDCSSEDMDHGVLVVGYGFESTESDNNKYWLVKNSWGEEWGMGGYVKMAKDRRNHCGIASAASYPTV

Row | SMILES | Sel cat. S: Ki(cathepsin S)/Ki(calpain) ratio (cathepsin S) | Sel cat. B: Ki(cathepsin B)/Ki(calpain) ratio (cathepsin B) | Sel cat. L: Ki(cathepsin L)/Ki(calpain) ratio (cathepsin L) | Sel cat. K: Ki(cathepsin K)/Ki(calpain) ratio (cathepsin K)
1 | NC(=O)C(=O)C(Cc1ccccc1)NC(=O)c1cccnc1-n1cc2c(n1)-c1cccc(Cl)c1OC2 (centres unmarked) [Example 175, N-[3-Amino-2,3-dioxo-1-(phenylmethyl)propyl]-2-(6-chlorochromeno[4,3-c]pyrazol-2(4H)-yl)pyridine-3-carboxamide] | ++ (++ means a Ki(cathepsin S)/Ki(calpain) ratio of ≧100) | ++ (++ means a Ki(cathepsin B)/Ki(calpain) ratio of ≧30) | ++ (++ means a Ki(cathepsin L)/Ki(calpain) ratio of ≧50) | ++ (++ means a Ki(cathepsin K)/Ki(calpain) ratio of ≧30)
2 | NC(=O)C(=O)C(Cc1ccc(Cl)cc1)NC(=O)c1cccnc1-n1ccc(-c2ccc(F)cc2)n1 (centres unmarked) [Example 67, N-[3-Amino-1-(4-chlorobenzyl)-2,3-dioxopropyl]-2-[3-(4-fluorophenyl)-1H-pyrazol-1-yl]nicotinamide] | ++ (++ means a Ki(cathepsin S)/Ki(calpain) ratio of ≧100) | + (+ means 10≦Ki(cathepsin B)/Ki(calpain)<30) | ++ (++ means a Ki(cathepsin L)/Ki(calpain) ratio of ≧50) | + (+ means 10≦Ki(cathepsin K)/Ki(calpain)<30)
3 | NC(=O)C(=O)C(Cc1ccccc1)NC(=O)c1cccnc1-n1ccc(-c2cccc(C(F)(F)F)c2)n1 (centres unmarked) [Example 83, N-(3-Amino-1-benzyl-2,3-dioxopropyl)-2-{3-[3-(trifluoromethyl)phenyl]-1H-pyrazol-1-yl}nicotinamide] | ++ (++ means a Ki(cathepsin S)/Ki(calpain) ratio of ≧100) | + (+ means 10≦Ki(cathepsin B)/Ki(calpain)<30) | ++ (++ means a Ki(cathepsin L)/Ki(calpain) ratio of ≧50) | ++ (++ means a Ki(cathepsin K)/Ki(calpain) ratio of ≧30)
4 | NC(=O)C(=O)C(Cc1ccccc1)NC(=O)c1cccnc1-n1ccc(-c2ccc(N3CCOCC3)cc2F)n1 (centres unmarked) [Example 102, N-[3-Amino-2,3-dioxo-1-(phenylmethyl)propyl]-2-[3-(2-fluoro-4-morpholin-4-ylphenyl)-1H-pyrazol-1-yl]pyridine-3-carboxamide] | ++ (++ means a Ki(cathepsin S)/Ki(calpain) ratio of ≧100) | + (+ means 10≦Ki(cathepsin B)/Ki(calpain)<30) | ++ (++ means a Ki(cathepsin L)/Ki(calpain) ratio of ≧50) | ++ (++ means a Ki(cathepsin K)/Ki(calpain) ratio of ≧30)
5 | COc1ccc(F)cc1-c1ccn(-c2ncccc2C(=O)NC(Cc2ccccc2)C(=O)C(N)=O)n1 (centres unmarked) [Example 130, N-[3-Amino-2,3-dioxo-1-(phenylmethyl)propyl]-2-{3-[5-fluoro-2-(methyloxy)phenyl]-1H-pyrazol-1-yl}pyridine-3-carboxamide] | ++ (++ means a Ki(cathepsin S)/Ki(calpain) ratio of ≧100) | ++ (++ means a Ki(cathepsin B)/Ki(calpain) ratio of ≧30) | ++ (++ means a Ki(cathepsin L)/Ki(calpain) ratio of ≧50) | ++ (++ means a Ki(cathepsin K)/Ki(calpain) ratio of ≧30)
6 | COc1ccc(-c2ccn(-c3ncccc3C(=O)NC(Cc3ccccc3)C(=O)C(N)=O)n2)cc1 (centres unmarked) [Example 48, N-(3-Amino-1-benzyl-2,3-dioxopropyl)-2-[3-(4-methoxyphenyl)-1H-pyrazol-1-yl]nicotinamide] | ++ (++ means a Ki(cathepsin S)/Ki(calpain) ratio of ≧100) | + (+ means 10≦Ki(cathepsin B)/Ki(calpain)<30) | ++ (++ means a Ki(cathepsin L)/Ki(calpain) ratio of ≧50) | + (+ means 10≦Ki(cathepsin K)/Ki(calpain)<30)
7 | NC(=O)C(=O)C(Cc1ccc(OCc2ccccc2)cc1)NC(=O)c1cccnc1-n1ccc(-c2ccccc2)n1 (centres unmarked) [Example 127, N-[3-Amino-2,3-dioxo-1-({4-[(phenylmethyl)oxy]phenyl}methyl)propyl]-2-(3-phenyl-1H-pyrazol-1-yl)pyridine-3-carboxamide] | ++ (++ means a Ki(cathepsin S)/Ki(calpain) ratio of ≧100) | ++ (++ means a Ki(cathepsin B)/Ki(calpain) ratio of ≧30) | ++ (++ means a Ki(cathepsin L)/Ki(calpain) ratio of ≧50) | ++ (++ means a Ki(cathepsin K)/Ki(calpain) ratio of ≧30)
8 | Cl.NC(=O)C(=O)C(Cc1cccnc1)NC(=O)c1cccnc1-n1ccc(-c2ccccc2)n1 (centres unmarked) [Example 88, N-[3-Amino-2,3-dioxo-1-(pyridin-3-ylmethyl)propyl]-2-(3-phenyl-1H-pyrazol-1-yl)pyridine-3-carboxamide hydrochloride] | ++ (++ means a Ki(cathepsin S)/Ki(calpain) ratio of ≧100) | + (+ means 10≦Ki(cathepsin B)/Ki(calpain)<30) | ++ (++ means a Ki(cathepsin L)/Ki(calpain) ratio of ≧50) | ++ (++ means a Ki(cathepsin K)/Ki(calpain) ratio of ≧30)
9 | NC(=O)C(=O)C(Cc1ccccc1)NC(=O)c1cccnc1-n1cc2c(n1)-c1ccccc1CC2 (centres unmarked) [Example 63, N-(3-Amino-1-benzyl-2,3-dioxopropyl)-2-(4,5-dihydro-2H-benzo[g]indazol-2-yl)nicotinamide] | ++ (++ means a Ki(cathepsin S)/Ki(calpain) ratio of ≧100) | + (+ means 10≦Ki(cathepsin B)/Ki(calpain)<30) | ++ (++ means a Ki(cathepsin L)/Ki(calpain) ratio of ≧50) | + (+ means 10≦Ki(cathepsin K)/Ki(calpain)<30)
10 | NC(=O)C(=O)C(Cc1ccccc1)NC(=O)c1cccnc1-n1ccc(-c2ccc3c(c2)OC(F)(F)O3)n1 (centres unmarked) [Example 118, N-[3-Amino-2,3-dioxo-1-(phenylmethyl)propyl]-2-[3-(2,2-difluoro-1,3-benzodioxol-5-yl)-1H-pyrazol-1-yl]pyridine-3-carboxamide] | ++ (++ means a Ki(cathepsin S)/Ki(calpain) ratio of ≧100) | ++ (++ means a Ki(cathepsin B)/Ki(calpain) ratio of ≧30) | ++ (++ means a Ki(cathepsin L)/Ki(calpain) ratio of ≧50) | + (+ means 10≦Ki(cathepsin K)/Ki(calpain)<30)
11 | COc1ccc(CC(NC(=O)c2cccnc2-n2ccc(-c3ccc(F)cc3F)n2)C(=O)C(N)=O)cc1 (centres unmarked) [Example 97, N-(3-Amino-1-{[4-(methyloxy)phenyl]methyl}-2,3-dioxopropyl)-2-[3-(2,4-difluorophenyl)-1H-pyrazol-1-yl]pyridine-3-carboxamide] | ++ (++ means a Ki(cathepsin S)/Ki(calpain) ratio of ≧100) | ++ (++ means a Ki(cathepsin B)/Ki(calpain) ratio of ≧30) | ++ (++ means a Ki(cathepsin L)/Ki(calpain) ratio of ≧50) | + (+ means 10≦Ki(cathepsin K)/Ki(calpain)<30)
12 | NC(=O)C(=O)C(Cc1ccccc1)NC(=O)c1cccnc1-n1ccc(-c2ccc(C(F)(F)F)cc2)n1 (centres unmarked) [Example 60, N-(3-Amino-1-benzyl-2,3-dioxopropyl)-2-{3-[4-(trifluoromethyl)phenyl]-1H-pyrazol-1-yl}nicotinamide] | + (+ means 50≦Ki(cathepsin S)/Ki(calpain)<100) | + (+ means 10≦Ki(cathepsin B)/Ki(calpain)<30) | ++ (++ means a Ki(cathepsin L)/Ki(calpain) ratio of ≧50) | + (+ means 10≦Ki(cathepsin K)/Ki(calpain)<30)
13 | NC(=O)C(=O)C(Cc1ccccc1)NC(=O)c1cccnc1-n1cc2c(n1)-c1ccccc1OC2 (centres unmarked) [Example 100, N-[3-Amino-2,3-dioxo-1-(phenylmethyl)propyl]-2-chromeno[4,3-c]pyrazol-2(4H)-ylpyridine-3-carboxamide] | ++ (++ means a Ki(cathepsin S)/Ki(calpain) ratio of ≧100) | + (+ means 10≦Ki(cathepsin B)/Ki(calpain)<30) | ++ (++ means a Ki(cathepsin L)/Ki(calpain) ratio of ≧50) | ++ (++ means a Ki(cathepsin K)/Ki(calpain) ratio of ≧30)
14 | NC(=O)C(=O)C(Cc1ccccc1)NC(=O)c1cccnc1-n1ccc(-c2ccc(F)cc2Cl)n1 (centres unmarked) [Example 71, N-(3-Amino-1-benzyl-2,3-dioxopropyl)-2-[3-(2-chloro-4-fluorophenyl)-1H-pyrazol-1-yl]nicotinamide] | ++ (++ means a Ki(cathepsin S)/Ki(calpain) ratio of ≧100) | ++ (++ means a Ki(cathepsin B)/Ki(calpain) ratio of ≧30) | ++ (++ means a Ki(cathepsin L)/Ki(calpain) ratio of ≧50) | ++ (++ means a Ki(cathepsin K)/Ki(calpain) ratio of ≧30)
